For 27 compounds, IC50 results are on record in patent US20230286970A1, “NOVEL OXADIAZOLE-BASED SELECTIVE HDAC6 INHIBITORS” (ITALFARMACO S.P.A., priority 2020, published 2023).

One test concerns the target recombinant human HDAC6 (Homo sapiens (Human), UniProt Q9UBN7). The experiment in a line: Enzymatic screening, HDAC6 inhibition (fluorogenic FdL_G substrate). The test is classed as biochemical. In short, it runs like this: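 Enzyme was preincubated with compound (8 doses, triplicate, 1% DMSO) in 25 mM Tris-HCl pH 8, 130 mM NaCl, 0.05% Tween-20, 10% glycerol, with BSA. A FLUOR DE LYS-Green substrate was then added, and fluorescence was read after developer plus 2 μM TSA.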

A further test addresses recombinant human HDAC1 (Homo sapiens (Human), UniProt Q13547). The experiment in a line: Enzymatic screening, HDAC1 inhibition (fluorogenic FdL_G substrate). Format: biochemical. In a few lines:
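Recombinant human HDAC1 inhibition was measured fluorometrically using the FLUOR DE LYS-Green (FdL_G) substrate. Compounds at 8 doses (1% DMSO final) in Tris-HCl pH 8 buffer with NaCl, Tween-20 and glycerol were preincubated in triplicate with enzyme and 1 mg/mL BSA, then given substrate. Developer I plus 2 μM TSA was added, and fluorescence read after 25 minutes in the dark.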

Some results are limits rather than exact numbers.

Chain of recombinant human HDAC6 (Q9UBN7 whole entry): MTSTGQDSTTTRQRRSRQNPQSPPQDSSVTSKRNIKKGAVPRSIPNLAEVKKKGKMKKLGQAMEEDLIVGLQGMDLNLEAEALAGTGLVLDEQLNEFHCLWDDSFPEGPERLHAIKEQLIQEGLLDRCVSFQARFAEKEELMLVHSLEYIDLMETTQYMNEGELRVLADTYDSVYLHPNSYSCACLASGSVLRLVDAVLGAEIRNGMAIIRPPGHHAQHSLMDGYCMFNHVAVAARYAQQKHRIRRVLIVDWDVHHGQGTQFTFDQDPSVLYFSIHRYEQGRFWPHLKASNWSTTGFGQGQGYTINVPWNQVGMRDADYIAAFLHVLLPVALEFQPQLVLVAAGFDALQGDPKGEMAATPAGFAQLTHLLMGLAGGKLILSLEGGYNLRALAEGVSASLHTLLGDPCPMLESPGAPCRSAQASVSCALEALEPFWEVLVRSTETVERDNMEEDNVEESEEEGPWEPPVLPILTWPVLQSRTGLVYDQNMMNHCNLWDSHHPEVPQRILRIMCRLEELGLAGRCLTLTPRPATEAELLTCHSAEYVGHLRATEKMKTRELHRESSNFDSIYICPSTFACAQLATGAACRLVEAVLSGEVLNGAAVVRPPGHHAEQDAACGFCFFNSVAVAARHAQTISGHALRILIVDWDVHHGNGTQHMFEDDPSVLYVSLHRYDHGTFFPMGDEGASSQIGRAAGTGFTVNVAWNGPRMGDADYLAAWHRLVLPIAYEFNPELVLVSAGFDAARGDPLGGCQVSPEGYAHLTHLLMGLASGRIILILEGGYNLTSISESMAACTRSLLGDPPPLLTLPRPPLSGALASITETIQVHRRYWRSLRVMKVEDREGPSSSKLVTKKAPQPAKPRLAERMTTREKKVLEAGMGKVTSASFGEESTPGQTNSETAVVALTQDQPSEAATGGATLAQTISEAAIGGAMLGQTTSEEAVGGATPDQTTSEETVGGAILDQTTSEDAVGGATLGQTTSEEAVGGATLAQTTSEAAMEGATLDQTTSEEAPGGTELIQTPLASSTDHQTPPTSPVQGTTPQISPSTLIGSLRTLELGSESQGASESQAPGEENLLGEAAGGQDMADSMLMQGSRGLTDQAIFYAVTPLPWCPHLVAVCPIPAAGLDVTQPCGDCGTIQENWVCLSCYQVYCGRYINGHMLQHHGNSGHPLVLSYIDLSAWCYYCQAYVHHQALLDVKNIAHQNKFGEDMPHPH
Chain of recombinant human HDAC1 (Q13547 whole entry): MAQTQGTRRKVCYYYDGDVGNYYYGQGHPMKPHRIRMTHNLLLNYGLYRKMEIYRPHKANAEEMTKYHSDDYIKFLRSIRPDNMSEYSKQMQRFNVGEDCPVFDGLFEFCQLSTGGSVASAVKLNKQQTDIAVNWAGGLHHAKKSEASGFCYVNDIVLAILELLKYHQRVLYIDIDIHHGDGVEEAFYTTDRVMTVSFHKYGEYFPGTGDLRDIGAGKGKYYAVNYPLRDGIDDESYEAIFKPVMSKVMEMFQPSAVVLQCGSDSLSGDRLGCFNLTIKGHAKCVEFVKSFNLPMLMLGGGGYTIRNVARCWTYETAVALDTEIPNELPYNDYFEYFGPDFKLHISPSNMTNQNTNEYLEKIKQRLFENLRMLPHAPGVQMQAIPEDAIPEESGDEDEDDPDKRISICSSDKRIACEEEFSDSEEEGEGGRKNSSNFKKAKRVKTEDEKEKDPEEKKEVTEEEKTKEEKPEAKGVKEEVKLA

By IC50 is commonly meant the concentration at which inhibition is half-maximal. Take `Nc1cncc(-c2cn(Cc3c(F)cc(-c4nnc(C(F)F)o4)cc3F)nn2)c1` [compound 73, 5-(1-(4-(5-(difluoromethyl)-1,3,4-oxadiazol-2-yl)-2,6-difluorobenzyl)-1H-1,2,3-triazol-4-yl)pyridin-3-amine]: the IC50 on recombinant human HDAC6 is 0.031 µM; on recombinant human HDAC1 it was greater than 200 µM.
The like results for `FC(F)c1nnc(-c2ccc(Cn3cc(-c4cnc5cccnn45)nn3)nc2)o1` [compound 74, 2-(difluoromethyl)-5-(6-((4-(imidazo[1,2-b]pyridazin-3-yl)-1H-1,2,3-triazol-1-yl)methyl)pyridin-3-yl)-1,3,4-oxadiazole] were, in that order, 0.031 µM and greater than 200 µM.
On to `Nc1ccc(-c2nnn(Cc3ncc(-c4nnc(C(F)F)o4)cn3)n2)cn1` [compound 77, 5-(2-((5-(5-(difluoromethyl)-1,3,4-oxadiazol-2-yl)pyrimidin-2-yl)methyl)-2H-tetrazol-5-yl)pyridin-2-amine], for which the concentration for half-maximal inhibition (IC50) on recombinant human HDAC6 is 0.035 µM; at recombinant human HDAC1 it was greater than 200 µM.
As for `FC(F)c1nnc(-c2ccc(Cn3nnc(-c4cncc(Br)c4)n3)cc2)o1` [compound 82, 2-(4-((5-(5-bromopyridin-3-yl)-2H-tetrazol-2-yl)methyl)phenyl)-5-(difluoromethyl)-1,3,4-oxadiazole], the results for the half-maximal inhibitory concentration (IC50) at recombinant human HDAC6 and on recombinant human HDAC1 were 0.033 µM and greater than 200 µM, respectively.
Take `O=C1NCCc2ccc(-c3nnn(Cc4ccc(-c5nnc(C(F)F)o5)cc4)n3)cc21` [compound 83, 7-[2-[[4-[5-(difluoromethyl)-1,3,4-oxadiazol-2-yl]phenyl]methyl]tetrazol-5-yl]-3,4-dihydro-2H-isoquinolin-1-one]: the IC50 is 0.033 µM at recombinant human HDAC6 and greater than 200 µM at recombinant human HDAC1.
With `FC(F)c1nnc(-c2ccc(Cn3cc(-c4cccs4)nn3)nc2)o1` [compound 85, 2-(difluoromethyl)-5-(6-((4-(thiophen-2-yl)-1H-1,2,3-triazol-1-yl)methyl)pyridin-3-yl)-1,3,4-oxadiazole], the figures for the IC50 at recombinant human HDAC6 and at recombinant human HDAC1 were 0.033 µM and greater than 200 µM, respectively.
Take `FC(F)c1nnc(-c2ccc(Cn3nnc(-c4ccc(CN5CCCCC5)cc4)n3)cc2)o1` [compound 87, 2-(difluoromethyl)-5-(4-((5-(4-(piperidin-1-ylmethyl)phenyl)-2H-tetrazol-2-yl)methyl)phenyl)-1,3,4-oxadiazole]: the IC50 was 0.034 µM at recombinant human HDAC6 and greater than 200 µM on recombinant human HDAC1.
The corresponding values for `CC1(C)CN(c2cccc(-c3cn(Cc4c(F)cc(-c5nnc(C(F)F)o5)cc4F)nn3)c2)C1=O` [compound 92, 1-(3-(1-(4-(5-(difluoromethyl)-1,3,4-oxadiazol-2-yl)-2,6-difluorobenzyl)-1H-1,2,3-triazol-4-yl)phenyl)-3,3-dimethylazetidin-2-one] are 0.035 µM and greater than 200 µM.
Regarding `O=C(Nc1cc(-c2nnn(Cc3c(F)cc(-c4nnc(C(F)F)o4)cc3F)n2)ccc1O)N1CCOCC1` [compound 95, N-(5-(2-(4-(5-(difluoromethyl)-1,3,4-oxadiazol-2-yl)-2,6-difluorobenzyl)-2H-tetrazol-5-yl)-2-hydroxyphenyl)morpholine-4-carboxamide], the IC50 on recombinant human HDAC6 was 0.037 µM; at recombinant human HDAC1 it was greater than 200 µM.
As to `O=C(NCc1ccco1)c1cccc(-c2nnn(Cc3ccc(-c4nnc(C(F)F)o4)cc3)n2)c1` [compound 96, 3-(2-(4-(5-(difluoromethyl)-1,3,4-oxadiazol-2-yl)benzyl)-2H-tetrazol-5-yl)-N-(furan-2-ylmethyl)benzamide], the IC50 on recombinant human HDAC6 was 0.037 µM; at recombinant human HDAC1 it was greater than 200 µM.
For `O=C(Nc1cccc(-c2nnn(Cc3c(F)cc(-c4nnc(C(F)F)o4)cc3F)n2)c1)N1CCOCC1` [compound 98, N-(3-(2-(4-(5-(difluoromethyl)-1,3,4-oxadiazol-2-yl)-2,6-difluorobenzyl)-2H-tetrazol-5-yl)phenyl)morpholine-4-carboxamide], the figures for the IC50 on recombinant human HDAC6 and on recombinant human HDAC1 were 0.038 µM and greater than 200 µM, respectively.
As to `NCc1ccc(-c2nc(Cc3c(F)cc(-c4nnc(C(F)F)o4)cc3F)no2)cc1` [compound 100, (4-(3-(4-(5-(difluoromethyl)-1,3,4-oxadiazol-2-yl)-2,6-difluorobenzyl)-1,2,4-oxadiazol-5-yl)phenyl)methanamine], the figures for the IC50 on recombinant human HDAC6 and on recombinant human HDAC1 were 0.039 µM and greater than 200 µM, respectively.
The like results for `NCc1ccc(-c2cn(Cc3c(F)cc(-c4nnc(C(F)F)o4)cc3F)nn2)cn1` [compound 101, (5-(1-(4-(5-(difluoromethyl)-1,3,4-oxadiazol-2-yl)-2,6-difluorobenzyl)-1H-1,2,3-triazol-4-yl)pyridin-2-yl)methanamine] were, in that order, 0.039 µM and greater than 200 µM.
As for `FC(F)c1nnc(-c2ccc(Cn3nnc(-c4ccc(N5CCNCC5)cc4)n3)cc2)o1` [compound 103, 2-(difluoromethyl)-5-(4-((5-(4-(piperazin-1-yl)phenyl)-2H-tetrazol-2-yl)methyl)phenyl)-1,3,4-oxadiazole], the results for the IC50 at recombinant human HDAC6 and at recombinant human HDAC1 were 0.039 µM and greater than 200 µM, respectively.
The corresponding values for `O=C1NCc2ccc(-c3nnn(Cc4ncc(-c5nnc(C(F)F)o5)cn4)n3)cc21` [compound 107, 6-(2-((5-(5-(difluoromethyl)-1,3,4-oxadiazol-2-yl)pyrimidin-2-yl)methyl)-2H-tetrazol-5-yl)isoindolin-1-one] are 0.041 µM and greater than 200 µM.
For the compound `O=C1Nc2ccc(-c3nnn(Cc4ccc(-c5nnc(C(F)F)o5)cc4)n3)cc2NC12CCCC2` [compound 110, 7′-(2-(4-(5-(difluoromethyl)-1,3,4-oxadiazol-2-yl)benzyl)-2H-tetrazol-5-yl)-1′,4′-dihydro-3′H-spiro[cyclopentane-1,2′-quinoxalin]-3′-one], the IC50 on recombinant human HDAC6 was 0.042 µM; on recombinant human HDAC1, greater than 200 µM.
The corresponding values for `FC(F)c1nnc(-c2ccc(Cn3nnc(-c4cccc(-c5cnn6c5CNCC6)c4)n3)cc2)o1` [compound 111, 2-(difluoromethyl)-5-(4-((5-(3-(4,5,6,7-tetrahydropyrazolo[1,5-a]pyrazin-3-yl)phenyl)-2H-tetrazol-2-yl)methyl)phenyl)-1,3,4-oxadiazole] are 0.042 µM and greater than 200 µM.
The corresponding values for `O=C(c1cccc(-c2nnn(Cc3c(F)cc(-c4nnc(C(F)F)o4)cc3F)n2)c1)N1CCOCC1` [compound 112, (3-(2-(4-(5-(difluoromethyl)-1,3,4-oxadiazol-2-yl)-2,6-difluorobenzyl)-2H-tetrazol-5-yl)phenyl)(morpholino)methanone] are 0.042 µM and greater than 200 µM.
For `CCNc1cccc(-c2cn(Cc3c(F)cc(-c4nnc(C(F)F)o4)cc3F)nn2)c1` [compound 114, 3-(1-(4-(5-(difluoromethyl)-1,3,4-oxadiazol-2-yl)-2,6-difluorobenzyl)-1H-1,2,3-triazol-4-yl)-N-ethylaniline], the IC50 was 0.043 µM at recombinant human HDAC6 and greater than 200 µM on recombinant human HDAC1.
The corresponding values for `Cc1ncccc1-c1cn(Cc2ccc(-c3nnc(C(F)F)o3)cn2)nn1` [compound 115, 2-(difluoromethyl)-5-(6-((4-(2-methylpyridin-3-yl)-1H-1,2,3-triazol-1-yl)methyl)pyridin-3-yl)-1,3,4-oxadiazole] are 0.043 µM and greater than 200 µM.
The corresponding values for `FC(F)c1nnc(-c2ccc(Cn3nnc(-c4cncc5ccccc45)n3)cc2)o1` [compound 118, 2-(difluoromethyl)-5-(4-((5-(isoquinolin-4-yl)-2H-tetrazol-2-yl)methyl)phenyl)-1,3,4-oxadiazole] are 0.044 µM and greater than 200 µM.
In the case of `O=C(Nc1cccc(-c2cnn(Cc3ccc(-c4nnc(C(F)F)o4)cn3)c2)c1)N1CCOCC1` [compound 119, N-(3-(1-((5-(5-(difluoromethyl)-1,3,4-oxadiazol-2-yl)pyridin-2-yl)methyl)-1H-pyrazol-4-yl)phenyl)morpholine-4-carboxamide], the IC50 at recombinant human HDAC6 is 0.045 µM; on recombinant human HDAC1 it was greater than 200 µM.
Turning to `O=C(c1cccc(-c2nnn(Cc3ccc(-c4nnc(C(F)F)o4)cc3)n2)c1)N1CCOCC1` [compound 120, (3-(2-(4-(5-(difluoromethyl)-1,3,4-oxadiazol-2-yl)benzyl)-2H-tetrazol-5-yl)phenyl)(morpholino)methanone], the figures for the IC50 on recombinant human HDAC6 and on recombinant human HDAC1 were 0.045 µM and greater than 200 µM, respectively.
The like results for `Nc1ccc(-c2cn(Cc3ccc(-c4nnc(C(F)F)o4)cc3)nn2)cc1` [compound 121, 4-(1-(4-(5-(difluoromethyl)-1,3,4-oxadiazol-2-yl)benzyl)-1H-1,2,3-triazol-4-yl)aniline] were, in that order, 0.045 µM and greater than 200 µM.
`O=C1Nc2cc(-c3cn(Cc4ccc(-c5nnc(C(F)F)o5)cn4)nn3)ccc2C12CCCC2` [compound 123, 6′-(1-((5-(5-(difluoromethyl)-1,3,4-oxadiazol-2-yl)pyridin-2-yl)methyl)-1H-1,2,3-triazol-4-yl)spiro[cyclopentane-1,3′-indolin]-2′-one]: the IC50 on recombinant human HDAC6 is 0.046 µM; at recombinant human HDAC1 it was greater than 200 µM.
The corresponding values for `O=C(Nc1ccc(-c2cn(Cc3ccc(-c4nnc(C(F)F)o4)cn3)cn2)cn1)C(F)F` [compound 126, N-(5-(1-((5-(5-(difluoromethyl)-1,3,4-oxadiazol-2-yl)pyridin-2-yl)methyl)-1H-imidazol-4-yl)pyridin-2-yl)-2,2-difluoroacetamide] are 0.049 µM and greater than 200 µM.
The like results for `FC(F)c1nnc(-c2ccc(Cn3nnc(-c4ccc5ccncc5c4)n3)cc2)o1` [compound 127, 2-(difluoromethyl)-5-(4-((5-(isoquinolin-7-yl)-2H-tetrazol-2-yl)methyl)phenyl)-1,3,4-oxadiazole] were, in that order, 0.049 µM and greater than 200 µM.
